Data on eleven compounds can be found in patent US10138249B2, “Triazolopyridines and triazolopyrazines as LSD1 inhibitors” (priority 2014, dated 2018).

The first assay deals with LSD-1 enzyme (Homo sapiens (Human), UniProt O60341). In kind it is biochemical.
Conditions: not given
The protocol: LANCE LSD1/KDM1A demethylase assay-10 μL of 1 nM LSD-1 enzyme (ENZO BML-SE544-0050) in the assay buffer (50 mM Tris, pH 7.5, 0.01% Tween-20, 25 mM NaCl, 5 mM DTT) were preincubated for 1 hour at 25° C. with 0.8 μL compound/DMSO dotted in black 384 well polystyrene plates. […] After stopping the reactions plates were incubated for 30 minutes and read on a PHERAstar FS plate reader (BMG Labtech).
Broadly, the IC50 is the concentration that gives 50% inhibition. A low value points to higher potency. Consider `Cc1ccc(-c2c(-c3ccc(C#N)cc3)cc(OC[C@@H]3CCNC3)c3nn(CC#N)c(=O)n23)cc1` [Example 5, (R)-4-(2-(cyanomethyl)-3-oxo-8-(pyrrolidin-3-ylmethoxy)-5-p-tolyl-2,3-dihydro-[1,2,4]triazolo[4,3-a]pyridin-6-yl)benzonitrile], for which the half-maximal inhibitory concentration (IC50) is below 50 nM.

Regarding `Cc1ccc(-c2c(-c3ccc(C#N)cc3)cc(OC[C@@H]3CCNC3)c3nn(CC4CCCC4)c(=O)n23)cc1` [Example 7, 4-{2-(cyclopentylmethyl)-5-(4-methylphenyl)-3-oxo-8-[(3R)-pyrrolidin-3-ylmethoxy]-2,3-dihydro[1,2,4]triazolo[4,3-a]pyridin-6-yl}benzonitrile], the IC50 is below 50 nM.

For `Cc1ccc(-c2c(-c3ccc(C#N)cc3)cc(OC[C@@H]3CCNC3)c3nn(Cc4ccccc4)c(=O)n23)cc1` [Example 16, 4-{2-benzyl-5-(4-methylphenyl)-3-oxo-8-[(3R)-pyrrolidin-3-ylmethoxy]-2,3-dihydro[1,2,4]triazolo[4,3-a]pyridin-6-yl}benzonitrile], the half-inhibitory concentration (IC50) was below 50 nM.

The same assay, now with this note: 1 nM LSD-1 enzyme, 1 hour preincubation at 25° C., 0.4 μM biotin-labeled histone H3 peptide substrate.
Compound `Cc1ccc(-c2c(-c3ccc(C#N)cc3)cc(OC[C@@H]3CCNC3)c3nncn23)cc1` [Example 1, 4-{5-(4-methylphenyl)-8-[(3R)-pyrrolidin-3-ylmethoxy][1,2,4]triazolo[4,3-a]pyridin-6-yl}benzonitrile] came in with a half-maximal inhibitory concentration (IC50) of at most 50 nM.

Regarding `Cc1ccc(-c2c(-c3ccc(C#N)c(F)c3)cc(OC[C@@H]3CCNC3)c3nncn23)cc1` [Example 2, 2-fluoro-4-{5-(4-methylphenyl)-8-[(3R)-pyrrolidin-3-ylmethoxy][1,2,4]triazolo[4,3-a]pyridin-6-yl}benzonitrile], the half-inhibitory concentration (IC50) was at most 50 nM.

In turn, `Cc1ccc(-c2c(-c3ccc(C#N)cc3)cc(OC[C@@H]3CCNC3)c3n[nH]c(=O)n23)cc1` [Example 3, 4-{5-(4-methylphenyl)-3-oxo-8-[(3R)-pyrrolidin-3-ylmethoxy]-2,3-dihydro[1,2,4]triazolo[4,3-a]pyridin-6-yl}benzonitrile] came in with an IC50 of at most 50 nM.

As for `Cc1ccc(-c2c(-c3ccc(C#N)cc3)cc(OC[C@@H]3CCNC3)c3nn(CCC#N)c(=O)n23)cc1` [Example 6, 4-{2-(2-cyanoethyl)-5-(4-methylphenyl)-3-oxo-8-[(3R)-pyrrolidin-3-ylmethoxy]-2,3-dihydro[1,2,4]triazolo[4,3-a]pyridin-6-yl}benzonitrile], the half-maximal inhibitory concentration (IC50) was at most 50 nM.

On to `Cc1ccc(-c2c(-c3ccc(C#N)cc3)cc(OC[C@@H]3CCNC3)c3nn(CC4CCNCC4)c(=O)n23)cc1` [Example 13, 4-{5-(4-methylphenyl)-3-oxo-2-(piperidin-4-ylmethyl)-8-[(3R)-pyrrolidin-3-ylmethoxy]-2,3-dihydro[1,2,4]triazolo[4,3-a]pyridin-6-yl}benzonitrile], for which the concentration for half-maximal inhibition (IC50) is at most 50 nM.

`Cc1ccc(-c2c(-c3ccc(C#N)cc3)cc(OC[C@@H]3CCNC3)c3nn(CCOc4ccccc4)c(=O)n23)cc1` [Example 14, 4-{5-(4-methylphenyl)-3-oxo-2-(2-phenoxyethyl)-8-[(3R)-pyrrolidin-3-ylmethoxy]-2,3-dihydro[1,2,4]triazolo[4,3-a]pyridin-6-yl}benzonitrile]: the IC50 is at most 50 nM.

`Cc1ccc(-c2c(-c3ccc(C#N)cc3)cc(OC[C@@H]3CCNC3)c3nn(CCN(C)C)c(=O)n23)cc1` [Example 15, 4-{2-[2-(dimethylamino)ethyl]-5-(4-methylphenyl)-3-oxo-8-[(3R)-pyrrolidin-3-ylmethoxy]-2,3-dihydro[1,2,4]triazolo[4,3-a]pyridin-6-yl}benzonitrile] came in with an IC50 of at most 50 nM.

As to `Cc1ccc(-c2c(-c3ccc(C#N)cc3)cc(OC[C@@H]3CCNC3)c3nn(Cc4ccc(C#N)cc4)c(=O)n23)cc1` [Example 17, 4-{2-(4-cyanobenzyl)-5-(4-methylphenyl)-3-oxo-8-[(3R)-pyrrolidin-3-ylmethoxy]-2,3-dihydro[1,2,4]triazolo[4,3-a]pyridin-6-yl}benzonitrile], the IC50 is at most 50 nM.
